Reference: patent US10457707B2, “Substituted urea depsipeptide analogs as activators of the CLPP endopeptidase” (priority 2015, dated 2019)
Values after ≈ are worked out from the molar mass of the structure shown. *1 amine or outer side, *2 acyl side, *3 side chain or, on linkers, in order; H or OH if unused. Where a SMILES comes first, the peptide text is derived from it. Bridges are numbered along the chain shown (N, C = ends). [ ]: non-standard residue; d: D form. The star is where a group is joined. ξ: configuration not given here. Piperazine(2S-CO,4-Me) = CN1CCN[C@H](C(=O)O)C1; Phe(3,5-F2) = N[C@@H](Cc1cc(F)cc(F)c1)C(=O)O; NH(1-Me-indolin-5-yl) = CN1CCc2cc(N*)ccc21; NH(4-OCF3-phenyl) = FC(F)(F)Oc1ccc(N*)cc1; Morpholine(3S-CO) = O=C(O)[C@@H]1COCCN1; Pro(4S-Me) = C[C@@H]1CN[C@H](C(=O)O)C1; NH(4-Cl-2-F-phenyl) = Fc1cc(Cl)ccc1N*; Pro(4R-Me) = C[C@H]1CN[C@H](C(=O)O)C1; NMeaThr = CN[C@H](C(=O)O)[C@H](C)O; Hyp = O=C(O)[C@@H]1C[C@@H](O)CN1; NMeT = CN[C@H](C(=O)O)[C@@H](C)O; NH(4-Me-phenyl) = Cc1ccc(N*)cc1; ξNMeThr = CNC(C(=O)O)[C@@H](C)O; aThr = C[C@H](O)[C@H](N)C(=O)O; NMeA = CN[C@@H](C)C(=O)O; CO = O=C([*:1])[*:2]

Experiments:
Sa-ClpP = target: T1, Sa-ClpP (Staphylococcus aureus, UniProt Q2G036); experiment: Casein-BODIPY assay, second described ClpP activation method (EnzCheck Protease Assay, 384 well); type: biochemical, S. aureus; settings: values marked †: second described ClpP activation assay
T1 construct: made in house; host or cells: E. coli BL21(DE3)
T1 sequence (Q2G036 1-195): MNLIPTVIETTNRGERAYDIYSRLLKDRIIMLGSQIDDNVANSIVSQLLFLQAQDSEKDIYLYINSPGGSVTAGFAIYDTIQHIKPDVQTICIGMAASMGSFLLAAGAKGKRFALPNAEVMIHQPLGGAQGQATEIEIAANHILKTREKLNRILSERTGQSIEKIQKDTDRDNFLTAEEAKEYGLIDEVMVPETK
Description: Alternatively, the assay was carried out using EnzCheck Protease Assay (Molecular Probes, Catalog # E6638). The assay was performed in black 384 well, flat bottom, low volume plates (Greiner Bio-One, Monroe, N.C., catalog #784076). 10 μL of Tris*HCl buffer, pH 8.0 with 0.01% Triton X-100 was pipetted into each well using a Well-Mate (Thermo Scientific, Waltham, Mass.). 0.4 μL test compounds or controls (2% DMSO v/v) were added to each well using a Biomek FX liquid handling robot (Beckman Coulter, Indianapolis Ind.). After addition of test compounds and controls, 10 μL of master mix containing 2 μM Sa-ClpP and 2 μM substrate (Bodipy-FL labeled casein) in Tris*HCl buffer, pH 8.0 with 0.01% (v/v) Triton X-100, was pipetted into each well. All assays were performed in triplicate, under linear velocity conditions. Increase in fluorescent signal following activation of Sa-ClpP by test compounds and controls was measured over time period of 30 mins using filters with excitation at 485±15 nm and emission at 520±25 nm on a PHERAstar FS Multilabel reader (BMG, Cary, N.C.). […] Data analysis was done by measuring rate of casein degradation over time (slopes). Computed degradation rates (slopes) were normalized to positive (ADEP4) or negative (DMSO) controls. Using nonlinear regression curve fitting EC50 values and % activation were determined using the equation “log [agonist] vs. Response-variable slope (four parameters)-symmetrical” in the program Prism 6 (GraphPad Software, La Jolla, Calif. USA, www.graphpad.com).

[1] = test system: Streptococcus pneumoniae, R6; experiment: Minimal inhibitory concentration assay; type: cell-based; settings: read-out: Minimal Inhibitory Concentrations S. pneumoniae R6
Procedure, shortened: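 Microbroth dilution with two-fold serial compound dilutions in broth, incubated aerobically overnight at 37° C. MIC taken as the lowest concentration preventing bacterial growth.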

Row | Structure (SMILES) | EC50 (Sa-ClpP) | MIC [1]
1 | C[C@H]1C[C@H]2C(=O)O[C@@H](C)[C@H](NC(=O)[C@H](Cc3cc(F)cc(F)c3)NC(=O)Nc3ccc(OC(F)(F)F)cc3)C(=O)N3CCC[C@H]3C(=O)N(C)[C@@H]([C@@H](C)O)C(=O)N[C@@H](C)C(=O)N2C1 [Compound 36, (S)-3-(3,5-difluorophenyl)-N-((2S,6S,9S,11aS,17S,18S,20aS)-9-((R)-1-hydroxyethyl)-2,6,10,18-tetramethyl-5,8,11,16,20-pentaoxohexadecahydro-1H,5H,16H-dipyrrolo[2,1-c:2′,1′-l][1]oxa[4,7,10,13]tetraazacyclohexadecin-17-yl)-2-(3-(4-(trifluoromethoxy)phenyl)ureido)propanamide] ({NH(4-OCF3-phenyl)-CO}-[Phe(3,5-F2)][aThr]P[NMeT]A[Pro(4S-Me)]; ester 2-C) | 430 ± 10 nM | 0.024 µM (≈ 0.0212 µg/mL)
2 | Cc1ccc(NC(=O)N[C@@H](Cc2cc(F)cc(F)c2)C(=O)N[C@@H]2C(=O)N3CCC[C@H]3C(=O)N(C)[C@@H]([C@@H](C)O)C(=O)N[C@@H](C)C(=O)N3C[C@@H](C)C[C@H]3C(=O)O[C@H]2C)cc1 [Compound 35, (S)-3-(3,5-difluorophenyl)-N-((2S,6S,9S,11aS,17S,18S,20aS)-9-((R)-1-hydroxyethyl)-2,6,10,18-tetramethyl-5,8,11,16,20-pentaoxohexadecahydro-1H,5H,16H-dipyrrolo[2,1-c:2′,1′-l][1]oxa[4,7,10,13]tetraazacyclohexadecin-17-yl)-2-(3-(p-tolyl)ureido)propanamide] ({NH(4-Me-phenyl)-CO}-[Phe(3,5-F2)][aThr]P[NMeT]A[Pro(4S-Me)]; ester 2-C) | 480 ± 30 nM | 0.049 µM (≈ 0.0398 µg/mL)
3 | Cc1ccc(NC(=O)N[C@@H](Cc2cc(F)cc(F)c2)C(=O)N[C@@H]2C(=O)N3CCC[C@H]3C(=O)N(C)[C@@H]([C@@H](C)O)C(=O)N[C@@H](C)C(=O)N3C[C@H](C)C[C@H]3C(=O)O[C@H]2C)cc1 [Compound 38, (S)-3-(3,5-difluorophenyl)-N-((2R,6S,9S,11aS,17S,18S,20aS)-9-((R)-1-hydroxyethyl)-2,6,10,18-tetramethyl-5,8,11,16,20-pentaoxohexadecahydro-1H,5H,16H-dipyrrolo[2,1-c:2′,1′-l][1]oxa[4,7,10,13]tetraazacyclohexadecin-17-yl)-2-(3-(p-tolyl)ureido)propanamide] ({NH(4-Me-phenyl)-CO}-[Phe(3,5-F2)][aThr]P[NMeT]A[Pro(4R-Me)]; ester 2-C) | 330 ± 10 nM | 0.02 µM (≈ 0.0162 µg/mL)
4 | C[C@H]1C[C@H]2C(=O)O[C@@H](C)[C@H](NC(=O)[C@H](Cc3cc(F)cc(F)c3)NC(=O)Nc3ccc(OC(F)(F)F)cc3)C(=O)N3CCC[C@H]3C(=O)N(C)[C@@H]([C@H](C)O)C(=O)N[C@@H](C)C(=O)N2C1 [Compound 203, (S)-3-(3,5-difluorophenyl)-N-((2S,6S,9S,11aS,17S,18S,20aS)-9-((S)-1-hydroxyethyl)-2,6,10,18-tetramethyl-5,8,11,16,20-pentaoxohexadecahydro-1H,5H,16H-dipyrrolo[2,1-c:2′,1′-l][1]oxa[4,7,10,13]tetraazacyclohexadecin-17-yl)-2-(3-(4-(trifluoromethoxy)phenyl)ureido)propanamide] ({NH(4-OCF3-phenyl)-CO}-[Phe(3,5-F2)][aThr]P[NMeaThr]A[Pro(4S-Me)]; ester 2-C) |  | 0.024 µM (≈ 0.0212 µg/mL)
5 | Cc1ccc(NC(=O)N[C@@H](Cc2cc(F)cc(F)c2)C(=O)N[C@@H]2C(=O)N3CCC[C@H]3C(=O)N3CCOC[C@H]3C(=O)N[C@@H](C)C(=O)N3C[C@H](C)C[C@H]3C(=O)O[C@H]2C)cc1 [Compound 210, (S)-3-(3,5-difluorophenyl)-2-(3-(p-tolyl)ureido)-N-((6aS,12S,13S,15aS,17R,21S,23aS)-13,17,21-trimethyl-6,11,15,20,23-pentaoxooctadecahydro-6H,11H,15H-[1,4]oxazino[3,4-i]dipyrrolo[2,1-c:2′,1′-l][1]oxa[4,7,10,13]tetraazacyclohexadecin-12-yl)propanamide] ({NH(4-Me-phenyl)-CO}-[Phe(3,5-F2)][aThr]P[Morpholine(3S-CO)]A[Pro(4R-Me)]; ester 2-C) |  | 0.002 µM (≈ 0.00162 µg/mL)
6 | C[C@@H]1C[C@H]2C(=O)OC[C@H](NC(=O)[C@H](Cc3cc(F)cc(F)c3)NC(=O)Nc3ccc(Cl)cc3F)C(=O)N3CCC[C@H]3C(=O)N3CCN(C)C[C@H]3C(=O)N[C@@H](C)C(=O)N2C1 [Compound 330, (S)-2-(3-(4-chloro-2-fluorophenyl)ureido)-3-(3,5-difluorophenyl)-N-((6aS,12S,15aS,17R,21S,23aS)-2,17,21-trimethyl-6,11,15,20,23-pentaoxooctadecahydro-2H,6H,11H,15H-pyrazino[2,1-i]dipyrrolo[2,1-c:2′,1′-l][1]oxa[4,7,10,13]tetraazacyclohexadecin-12-yl)propanamide] ({NH(4-Cl-2-F-phenyl)-CO}-[Phe(3,5-F2)]SP[Piperazine(2S-CO,4-Me)]A[Pro(4R-Me)]; ester 2-C) |  | 0.039 µM (≈ 0.033 µg/mL)
7 | Cc1ccc(NC(=O)N[C@@H](Cc2cc(F)cc(F)c2)C(=O)N[C@@H]2C(=O)N3CCC[C@H]3C(=O)N(C)[C@@H]([C@H](C)O)C(=O)N[C@@H](C)C(=O)N3C[C@H](C)C[C@H]3C(=O)O[C@H]2C)cc1 [Compound 208, (S)-3-(3,5-difluorophenyl)-N-((2R,6S,9S,11aS,17S,18S,20aS)-9-((S)-1-hydroxyethyl)-2,6,10,18-tetramethyl-5,8,11,16,20-pentaoxohexadecahydro-1H,5H,16H-dipyrrolo[2,1-c:2′,1′-l][1]oxa[4,7,10,13]tetraazacyclohexadecin-17-yl)-2-(3-(p-tolyl)ureido)propanamide] ({NH(4-Me-phenyl)-CO}-[Phe(3,5-F2)][aThr]P[NMeaThr]A[Pro(4R-Me)]; ester 2-C) |  | 0.02 µM (≈ 0.0162 µg/mL)
8 | Cc1ccc(NC(=O)N[C@@H](Cc2cc(F)cc(F)c2)C(=O)N[C@@H]2C(=O)N3CCC[C@H]3C(=O)N(C)[C@@H]([C@H](C)O)C(=O)N[C@@H](C)C(=O)N3C[C@@H](C)C[C@H]3C(=O)O[C@H]2C)cc1 [Compound 202, (S)-3-(3,5-difluorophenyl)-N-((2S,6S,9S,11aS,17S,18S,20aS)-9-((S)-1-hydroxyethyl)-2,6,10,18-tetramethyl-5,8,11,16,20-pentaoxohexadecahydro-1H,5H,16H-dipyrrolo[2,1-c:2′,1′-L][1]oxa[4,7,10,13]tetraazacyclohexadecin-17-yl)-2-(3-(p-tolyl)ureido)propanamide] ({NH(4-Me-phenyl)-CO}-[Phe(3,5-F2)][aThr]P[NMeaThr]A[Pro(4S-Me)]; ester 2-C) |  | 0.049 µM (≈ 0.0398 µg/mL)
9 | Cc1ccc(NC(=O)N[C@@H](Cc2cc(F)cc(F)c2)C(=O)N[C@@H]2C(=O)N3C[C@H](O)C[C@H]3C(=O)N(C)[C@@H](C)C(=O)N[C@@H](C)C(=O)N3C[C@@H](C)C[C@H]3C(=O)O[C@H]2C)cc1 [Compound 214, (S)-3-(3,5-difluorophenyl)-N-((2S,6S,9S,11aS,13R,17S,18S,20aS)-13-hydroxy-2,6,9,10,18-pentamethyl-5,8,11,16,20-pentaoxohexadecahydro-1H,5H,16H-dipyrrolo[2,1-c:2′,1′-l][1]oxa[4,7,10,13]tetraazacyclohexadecin-17-yl)-2-(3-(p-tolyl)ureido)propanamide] ({NH(4-Me-phenyl)-CO}-[Phe(3,5-F2)][aThr][Hyp][NMeA]A[Pro(4S-Me)]; ester 2-C) |  | 0.195 µM (≈ 0.156 µg/mL)
10 | C[C@@H]1C[C@H]2C(=O)OC[C@H](NC(=O)[C@H](Cc3ccccc3)NC(=O)Nc3ccc4c(c3)OCO4)C(=O)N3CCC[C@H]3C(=O)N3CCCC[C@H]3C(=O)N[C@@H](C)C(=O)N2C1 [Compound 194, (S)-2-(3-(benzo[d][1,3]dioxol-5-yl)ureido)-N-((2R,6S,8aS,14aS,20S,23aS)-2,6-dimethyl-5,8,14,19,23-pentaoxooctadecahydro-1H,5H,14H,19H-pyrido[2,1-i]dipyrrolo[2,1-c:2′,1′-l][1]oxa[4,7,10,13]tetraazacyclohexadecin-20-yl)-3-phenylpropanamide] |  | < 0.2 µM
11 | C[C@@H]1C[C@H]2C(=O)O[C@@H](C)[C@H](NC(=O)[C@H](Cc3cc(F)cc(F)c3)NC(=O)Nc3ccc4c(c3)CCN4C)C(=O)N3CCC[C@H]3C(=O)N(C)C([C@@H](C)O)C(=O)N[C@@H](C)C(=O)N2C1 (stereo partly drawn) [Compound 311, (S)-3-(3,5-difluorophenyl)-N-((2R,6S,9R,11aS,17S,18S,20aS)-9-((R)-1-hydroxyethyl)-2,6,10,18-tetramethyl-5,8,11,16,20-pentaoxohexadecahydro-1H,5H,16H-dipyrrolo[2,1-c:2′,1′-l][1]oxa[4,7,10,13]tetraazacyclohexadecin-17-yl)-2-(3-(1-methylindolin-5-yl)ureido)propanamide] ({NH(1-Me-indolin-5-yl)-CO}-[Phe(3,5-F2)][aThr]P[ξNMeThr]A[Pro(4R-Me)]; ester 2-C) |  | 0.078 µM (≈ 0.0665 µg/mL)
